In general, Ki refers to the equilibrium dissociation constant of an inhibitor or competing ligand from its target. A high value points to weaker binding.

T1 sequence (O00329 whole entry): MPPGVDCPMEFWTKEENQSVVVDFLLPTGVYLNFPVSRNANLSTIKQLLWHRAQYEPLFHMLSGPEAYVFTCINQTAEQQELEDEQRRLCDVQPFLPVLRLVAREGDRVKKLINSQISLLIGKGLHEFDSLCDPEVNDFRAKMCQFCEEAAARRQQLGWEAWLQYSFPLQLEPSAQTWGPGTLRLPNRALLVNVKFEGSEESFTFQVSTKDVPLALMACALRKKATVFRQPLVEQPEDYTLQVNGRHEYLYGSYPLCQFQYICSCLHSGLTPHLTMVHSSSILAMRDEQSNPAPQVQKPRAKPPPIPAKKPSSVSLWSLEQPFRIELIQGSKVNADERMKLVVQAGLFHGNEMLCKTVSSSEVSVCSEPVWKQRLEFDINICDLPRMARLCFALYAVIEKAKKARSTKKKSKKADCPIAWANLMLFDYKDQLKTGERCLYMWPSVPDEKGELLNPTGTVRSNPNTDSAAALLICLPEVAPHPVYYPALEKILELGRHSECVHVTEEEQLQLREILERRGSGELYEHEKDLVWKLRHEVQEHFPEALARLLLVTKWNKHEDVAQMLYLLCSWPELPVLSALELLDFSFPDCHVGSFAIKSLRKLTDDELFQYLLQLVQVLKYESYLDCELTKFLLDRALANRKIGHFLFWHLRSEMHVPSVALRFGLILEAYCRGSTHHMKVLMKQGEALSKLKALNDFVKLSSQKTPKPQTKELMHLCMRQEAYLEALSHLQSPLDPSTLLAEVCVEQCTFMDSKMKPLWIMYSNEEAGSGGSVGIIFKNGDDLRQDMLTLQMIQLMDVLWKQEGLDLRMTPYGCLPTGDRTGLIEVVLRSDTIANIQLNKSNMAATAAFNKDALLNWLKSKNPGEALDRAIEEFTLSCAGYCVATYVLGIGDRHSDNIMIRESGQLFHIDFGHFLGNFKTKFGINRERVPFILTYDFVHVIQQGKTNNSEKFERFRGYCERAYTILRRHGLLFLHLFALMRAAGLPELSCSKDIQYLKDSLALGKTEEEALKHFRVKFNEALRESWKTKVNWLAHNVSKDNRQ
T1 sequence (P27986 whole entry partner): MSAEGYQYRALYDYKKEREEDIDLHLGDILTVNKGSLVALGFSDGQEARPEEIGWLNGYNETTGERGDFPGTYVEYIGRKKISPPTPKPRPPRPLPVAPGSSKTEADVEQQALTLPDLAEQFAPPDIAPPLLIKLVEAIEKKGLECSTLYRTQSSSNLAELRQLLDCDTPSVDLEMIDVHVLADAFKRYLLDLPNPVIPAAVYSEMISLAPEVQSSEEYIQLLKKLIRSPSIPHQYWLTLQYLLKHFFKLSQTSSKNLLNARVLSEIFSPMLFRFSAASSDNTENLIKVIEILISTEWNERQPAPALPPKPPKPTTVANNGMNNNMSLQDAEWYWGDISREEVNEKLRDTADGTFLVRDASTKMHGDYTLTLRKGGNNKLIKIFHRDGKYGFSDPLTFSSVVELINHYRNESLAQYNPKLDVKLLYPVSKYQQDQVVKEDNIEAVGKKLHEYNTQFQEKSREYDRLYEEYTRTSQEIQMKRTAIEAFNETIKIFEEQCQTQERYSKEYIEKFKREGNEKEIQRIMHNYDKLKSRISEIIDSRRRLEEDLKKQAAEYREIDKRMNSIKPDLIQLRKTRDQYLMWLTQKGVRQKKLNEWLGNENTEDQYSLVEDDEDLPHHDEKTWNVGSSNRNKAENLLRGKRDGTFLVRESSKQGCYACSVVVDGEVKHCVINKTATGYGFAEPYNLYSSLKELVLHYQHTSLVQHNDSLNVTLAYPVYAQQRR

This experiment has as its target T1, PI3Kδ (Homo sapiens, UniProt O00329).
T1 construct: Full length p110 subunits of PI3k α, β and δ, N-terminally labeled with polyHis tag; polyHis (N); made in house; host or cells: Sf9 insect cells (baculovirus)
Put plainly: PI3Kδ Alphascreen assay. Type of experiment: biochemical. In general terms: Bead proximity is the source of the signal in Alpha formats.
Regarding `Cc1c(-c2cc(Cl)ccn2)nc2cc(F)cc(F)c2c1Nc1cc(N2CCOCC2)cnc1N1CCOCC1` [2-(4-chloro-2-pyridinyl)-N-(2,5-di-4-morpholinyl-3-pyridinyl)-5,7-difluoro-3-methyl-4-quinolinamine], the affinity corresponds to a Ki of 4.37 nM.
Turning to `Cc1c(N2CCNC[C@H]2C)nc2cc(F)cc(F)c2c1Nc1cncc(N2CCOCC2)c1` [5,7-difluoro-3-methyl-2-((2R)-2-methyl-1-piperazinyl)-N-(5-(4-morpholinyl)-3-pyridinyl)-4-quinolinamine], the Ki came out at 15.9 nM. Against the preceding compound, the Ki is about 3.6-fold higher.
Turning to `COc1cncc(-c2ccc(N3CCOCC3)cc2Nc2c(C)c(-c3ccccn3)nc3cc(F)cc(F)c23)c1` [5,7-difluoro-N-(2-(5-methoxy-3-pyridinyl)-5-(4-morpholinyl)-phenyl)-3-methyl-2-(2-pyridinyl)-4-quinolinamine], affinity was put at a Ki of 0.627 nM. This Ki is about 25-fold lower than that of the compound before.
`Cc1c(-c2ccc(OCC3CC3)nc2)nc2cc(F)cc(F)c2c1Nc1cc(N2CCOCC2)cnc1N1CCOCC1` [2-(6-(cyclopropylmethoxy)-3-pyridinyl)-N-(2,5-di-4-morpholinyl-3-pyridinyl)-5,7-difluoro-3-methyl-4-quinolinamine] registered a Ki of 47.6 nM.
Compound `COc1cncc(-c2cc(C#N)c(N3CCOCC3)cc2Nc2c(C)c(-c3ccccn3)nc3cc(F)cc(F)c23)c1` [4-((5,7-difluoro-3-methyl-2-(2-pyridinyl)-4-quinolinyl)amino)-5-(5-methoxy-3-pyridinyl)-2-(4-morpholinyl)benzonitrile] yielded a Ki of 7.87 nM.
In the case of `Cc1cc(C(F)(F)F)ccc1-c1nc2cc(F)cc(F)c2c(Nc2cc(N3CCOCC3)cnc2N2CCOCC2)c1C` [N-(2,5-di-4-morpholinyl-3-pyridinyl)-5,7-difluoro-3-methyl-2-(2-methyl-4-(trifluoromethyl)phenyl)-4-quinolinamine], the Ki came out at 248 nM. This Ki lies about 32-fold higher than the previous one.
The result for `Cc1c(N2CCC[C@H]2C(=O)O)nc2cc(F)cc(F)c2c1Nc1cncc(N2CCOCC2)c1` [1-(5,7-difluoro-3-methyl-4-((5-(4-morpholinyl)-3-pyridinyl)-amino)-2-quinolinyl)-L-proline] reads 9.37 nM; that for `Cc1c(-c2ccc(C(F)(F)F)cc2C(F)(F)F)nc2cc(F)cc(F)c2c1Nc1cc(N2CCOCC2)cnc1N1CCOCC1` [2-(2,4-bis(trifluoromethyl)phenyl)-N-(2,5-di-4-morpholinyl-3-pyridinyl)-5,7-difluoro-3-methyl-4-quinolinamine], 344 nM.
Compound `Cc1c(-c2ccccn2)nc2cc(F)cc(F)c2c1Nc1cc(C#N)cc(N2CCOCC2)c1` [3-((5,7-difluoro-3-methyl-2-(2-pyridinyl)-4-quinolinyl)amino)-5-(4-morpholinyl)benzonitrile] gave a Ki of 7.97 nM.
Under `COc1ccc(-c2ccc(N3CCOCC3)cc2Nc2c(C)c(-c3ccccc3S(C)(=O)=O)nc3cc(F)cc(F)c23)cn1` [5,7-difluoro-N-(2-(6-methoxy-3-pyridinyl)-5-(4-morpholinyl)-phenyl)-3-methyl-2-(2-(methylsulfonyl)phenyl)-4-quinolinamine] stands 2.73 nM; under `Cc1c(N2CCN(C3CCCCC3)CC2)nc2cc(F)cc(F)c2c1Nc1cncc(N2CCOCC2)c1` [2-(4-cyclohexyl-1-piperazinyl)-5,7-difluoro-3-methyl-N-(5-(4-morpholinyl)-3-pyridinyl)-4-quinolinamine], 28.4 nM; under `Cc1c(N2CCN(C(=O)c3cnco3)CC2)nc2cc(F)cc(F)c2c1Nc1cncc(N2CCOCC2)c1` [5,7-difluoro-3-methyl-N-(5-(4-morpholinyl)-3-pyridinyl)-2-(4-(1,3-oxazol-5-ylcarbonyl)-1-piperazinyl)-4-quinolinamine], 48 nM.
The result for `Cc1c(N2CCN(C(C)C)CC2)nc2cc(F)cc(F)c2c1Nc1cncc(N2CCOCC2)c1` [5,7-difluoro-3-methyl-2-(4-(1-methylethyl)-1-piperazinyl)-N-(5-(4-morpholinyl)-3-pyridinyl)-4-quinolinamine] reads 11.3 nM.

Values taken from patent US8940724B2, “Quinoline derivitives and their uses” (Amgen Inc., priority 2009, dated 2015).
